{
  "source": "paper PMC4412158",
  "about": "(Nature chemical biology, 2014)",
  "target": "T1, phosphoglycerate kinase 1 (hPGK1) (Homo sapiens, UniProt P00558)",
  "T1 sequence (P00558 2-417)": "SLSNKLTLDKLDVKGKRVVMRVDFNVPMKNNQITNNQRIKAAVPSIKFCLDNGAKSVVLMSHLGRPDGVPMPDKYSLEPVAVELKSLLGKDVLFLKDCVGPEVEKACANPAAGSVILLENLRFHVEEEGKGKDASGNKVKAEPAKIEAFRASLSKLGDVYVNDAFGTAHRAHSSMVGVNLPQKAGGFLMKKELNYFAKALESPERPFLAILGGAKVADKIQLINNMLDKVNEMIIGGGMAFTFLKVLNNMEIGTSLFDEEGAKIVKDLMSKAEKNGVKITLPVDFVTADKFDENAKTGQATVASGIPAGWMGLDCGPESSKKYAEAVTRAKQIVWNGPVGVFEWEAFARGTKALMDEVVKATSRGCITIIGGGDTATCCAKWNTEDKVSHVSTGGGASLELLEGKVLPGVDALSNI",
  "assay": "co-crystal structure hPGK1-3PG-TZ at […] Å",
  "assay_type": "binding",
  "data": [
    {"compound": "COc1cc2nc(N3CCN(C(=O)C4CCCO4)CC3)nc(N)c2cc1OC", "note": "(racemic) [TZ, terazosin]", "values": [
      {"measurement": "co-crystal structure hPGK1-3PG-TZ at 2.1 Å", "value": "we obtained the ternary co-crystallization complexes for both the mouse and the human Pgk1-3PG-TZ"}
    ]}
  ]
}
